# Assay results published in patent publication US11001590B2, “Pyrazolopyrimidine derivatives” (BAYER ANIMAL HEALTH GMBH, priority 2016, dated 2021).
# Key:
# [1] = log P by HPLC on reversed phase columns (Method L0; [a] acidic, [b] neutral range); conditions: for logP (Method L0) [a]: HPLC on reversed phase columns, Method L0, [a] acidic range; for log P: HPLC on reversed phase columns (Method L0)
# Method: Calibration was done with straight-chain alkan-2-ones (with 3 to 16 carbon atoms) with known log P values (measurement of log P values using retention times with linear interpolation between successive alkanones). Lambda-max-values were determined using UV-spectra from 200 nm to 400 nm and the peak values of the chromatographic signals.
# C. elegans Slo-1a = C. elegans Slo-1a (Caenorhabditis elegans, UniProt Q95V25); assay: In vitro assay 1: C. elegans Slo-1a, action at a recombinant C. elegans CHO cell line (membrane potential measurement); conditions: CHO cells expressing C. elegans Slo-1a; voltage sensitive dye, FLIPR Tetra; negative decadic logarithm of EC50
# Chain of C. elegans Slo-1a (Q95V25 whole entry): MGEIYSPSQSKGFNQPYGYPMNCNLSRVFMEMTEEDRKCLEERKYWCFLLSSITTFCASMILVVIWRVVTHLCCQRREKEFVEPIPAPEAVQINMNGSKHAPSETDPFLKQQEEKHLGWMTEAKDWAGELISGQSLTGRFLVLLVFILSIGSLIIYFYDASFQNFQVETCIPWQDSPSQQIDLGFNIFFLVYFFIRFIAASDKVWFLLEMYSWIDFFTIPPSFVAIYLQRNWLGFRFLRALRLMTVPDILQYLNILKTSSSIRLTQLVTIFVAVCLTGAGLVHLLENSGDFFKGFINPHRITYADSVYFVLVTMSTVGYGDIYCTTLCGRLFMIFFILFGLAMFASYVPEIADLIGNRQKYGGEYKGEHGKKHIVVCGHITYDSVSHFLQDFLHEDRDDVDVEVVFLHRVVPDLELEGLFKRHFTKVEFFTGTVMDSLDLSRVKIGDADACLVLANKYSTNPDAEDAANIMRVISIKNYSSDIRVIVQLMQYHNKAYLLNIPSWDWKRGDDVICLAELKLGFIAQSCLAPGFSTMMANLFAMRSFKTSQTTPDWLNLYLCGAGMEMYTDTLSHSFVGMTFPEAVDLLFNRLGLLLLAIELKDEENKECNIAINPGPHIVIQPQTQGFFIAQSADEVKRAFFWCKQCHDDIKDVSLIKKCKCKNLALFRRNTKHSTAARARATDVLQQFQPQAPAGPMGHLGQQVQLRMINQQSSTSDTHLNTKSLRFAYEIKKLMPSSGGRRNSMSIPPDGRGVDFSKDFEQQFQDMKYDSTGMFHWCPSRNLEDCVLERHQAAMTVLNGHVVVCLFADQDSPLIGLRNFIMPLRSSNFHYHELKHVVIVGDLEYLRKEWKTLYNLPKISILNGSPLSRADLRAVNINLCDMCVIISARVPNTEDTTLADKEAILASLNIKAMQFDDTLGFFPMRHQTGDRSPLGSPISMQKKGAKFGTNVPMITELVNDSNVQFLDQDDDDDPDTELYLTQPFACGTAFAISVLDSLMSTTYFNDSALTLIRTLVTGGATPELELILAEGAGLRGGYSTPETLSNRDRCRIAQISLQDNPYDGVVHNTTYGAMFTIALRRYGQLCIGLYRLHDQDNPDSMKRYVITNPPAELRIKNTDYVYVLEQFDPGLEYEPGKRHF
# [2] = last column of Table 1, column head not shown
Structure (SMILES),logP (Method L0) [a] [1],also measured
Cc1c(C(=O)N[C@H]2CCCc3ccccc32)cnc2c(-c3cccc(Cl)c3)cnn12 [Example 44],4.33,–
O=C(N[C@H]1CCc2ccccc21)c1cnc2c(-c3cc(Cl)cc(Cl)c3)cnn2c1 [Example 47],4.74,–
CC(C)c1c(C(=O)N[C@H]2CCc3ccccc32)cnc2c(-c3ccc(Cl)cc3)c(C(F)(F)F)nn12 [Example 49],5.48,–
O=C(N[C@H]1CCc2ccccc21)c1cnc2c(-c3cccc(Cl)c3)c(C(F)(F)F)nn2c1 [Example 50],4.57,–
CC(C)c1c(C(=O)N[C@H]2CCCc3ccccc32)cnc2c(-c3cccc(Cl)c3)c(C(F)(F)F)nn12 [Example 51],5.74,–
Cc1c(C(=O)N[C@H]2CCc3ccccc32)cnc2c(-c3cccc(Cl)c3)cnn12 [Example 52],4.04,–
Cc1c(C(=O)N[C@H]2CCCc3ccccc32)cnc2c(-c3ccc(Cl)cc3)c(C(F)(F)F)nn12 [Example 53],4.97,–
CC(C)c1c(C(=O)N[C@H]2CCCc3ccccc32)cnc2c(-c3ccc(Cl)cc3)c(C(F)(F)F)nn12 [Example 54],5.76,–
Cc1c(C(=O)N[C@H]2CCc3ccccc32)cnc2c(-c3cccc(Cl)c3)c(C(F)(F)F)nn12 [Example 55],4.68,–
Cc1c(C(=O)N[C@H]2CCc3ccccc32)cnc2c(-c3ccc(Cl)cc3)c(C(F)(F)F)nn12 [Example 57],4.7,–
Cc1c(C(=O)N[C@H]2CCCc3ccccc32)cnc2c(-c3cccc(Cl)c3)c(Cl)nn12 [Example 58],4.9,–
CC(C)c1c(C(=O)N[C@H]2CCCc3ccccc32)cnc2c(-c3cc(Cl)cc(Cl)c3)c(Cl)nn12 [Example 64],6.69,–
Cc1c(C(=O)N[C@H]2CCc3ccccc32)cnc2c(-c3cc(Cl)cc(Cl)c3)cnn12 [Example 65],4.84,–
Cc1c(C(=O)N[C@H]2CCc3ccccc32)cnc2c(-c3cc(Cl)cc(Cl)c3)c(Cl)nn12 [Example 66],5.47,–
O=C(N[C@H]1CCc2ccccc21)c1cnc2c(-c3cc(Cl)cc(Cl)c3)c(Cl)nn2c1 [Example 67],5.39,–
Cc1c(C(=O)N[C@H]2CCCc3ccccc32)cnc2c(-c3cc(Cl)cc(Cl)c3)c(Cl)nn12 [Example 68],5.78,–
Cc1c(C(=O)N[C@H]2CCCc3ccccc32)cnc2c(-c3cccc(C(F)(F)F)c3)c(Cl)nn12 [Example 69],5.03,–
Cc1c(C(=O)N[C@H]2CCc3ccccc32)cnc2c(-c3cccc(C(F)(F)F)c3)c(Cl)nn12 [Example 71],4.73,–
Cc1c(C(=O)N[C@H]2CCc3ccccc32)cnc2c(-c3cccc(Cl)c3)c(Cl)nn12 [Example 75],4.6,–
CC(C)c1c(C(=O)N[C@H]2CCCc3ccccc32)cnc2c(-c3ccc(Cl)cc3)c(Cl)nn12 [Example 76],5.79,–
O=C(N[C@H]1CCc2ccccc21)c1cnc2c(-c3ccc(Cl)cc3)c(C(F)(F)F)nn2c1 [Example 80],4.61,–
Cc1c(C(=O)N[C@H]2CCCc3ccccc32)cnc2c(-c3cc(Cl)cc(Cl)c3)c(C(F)(F)F)nn12 [Example 82],5.66,–

Structure (SMILES),logP (Method L0) [a] [1],also measured
Cc1c(C(=O)N[C@H]2CCCc3ccccc32)cnc2c(-c3cccc(C(F)(F)F)c3)c(C(F)(F)F)nn12 [Example 83],5.03,–
O=C(N[C@H]1CCc2ccccc21)c1cnc2c(-c3ccccc3Cl)c(C(F)(F)F)nn2c1 [Example 84],4.15,–
Cc1c(C(=O)N[C@H]2CCc3ccccc32)cnc2c(-c3cccc(C(F)(F)F)c3)c(C(F)(F)F)nn12 [Example 85],4.77,–
Cc1c(C(=O)N[C@H]2CCCc3ccccc32)cnc2c(-c3cccc(Cl)c3)c(C(F)(F)F)nn12 [Example 86],4.94,–
O=C(N[C@H]1CCc2ccccc21)c1cnc2c(-c3cccc(C(F)(F)F)c3)c(C(F)(F)F)nn2c1 [Example 87],4.66,–
Cc1c(C(=O)N[C@H]2CCCc3ccccc32)cnc2c(-c3ccccc3Cl)c(C(F)(F)F)nn12 [Example 90],4.5,–
Cc1nn2c(C(C)C)c(C(=O)N[C@H]3CCOc4ccc(Cl)cc43)cnc2c1-c1ccc(Cl)cc1 [Example 106],5.36,–
Cc1ccc2c(c1)[C@@H](NC(=O)c1cnc3c(-c4cccc(Cl)c4)c(C)nn3c1C(C)C)CCC2 [Example 109],5.9,–
Cc1ccc2c(c1)[C@@H](NC(=O)c1cnc3c(-c4ccc(F)c(F)c4)c(C)nn3c1C(C)C)CCC2 [Example 112],5.55,–
Cc1ccc2c(c1)[C@@H](NC(=O)c1cnc3c(-c4ccc(Cl)cc4)c(C)nn3c1C(C)C)CCC2 [Example 113],5.88,–
Cc1nn2c(C(C)C)c(C(=O)N[C@H]3CCc4ccccc43)cnc2c1-c1ccc(Cl)c(C(=O)NC2CC2)c1 [Example 120],3.78,–
CC(C)c1c(C(=O)N[C@H]2CCOc3ccccc32)cnc2c(-c3cnn(CC(F)(F)F)c3)c(C(F)(F)F)nn12 [Example 129],4.21,–
CC(C)c1c(C(=O)N[C@H]2CCc3ccccc32)cnc2c(-c3ccc(F)nc3)c(C(F)(F)F)nn12 [Example 161],4.35,–
CC(C)c1c(C(=O)N[C@H]2CCc3ccccc32)cnc2c(-c3ccc(F)cc3)c(C(F)(F)F)nn12 [Example 162],4.95,–
CC(C)c1c(C(=O)N[C@H]2CCc3ccccc32)cnc2c(-c3cnc(F)c(F)c3)c(C(F)(F)F)nn12 [Example 163],4.76,–
CC(C)c1c(C(=O)N[C@H]2CCc3ccccc32)cnc2c(-c3ccc(Cl)nc3)c(C(F)(F)F)nn12 [Example 164],4.7,–
CC(C)Sc1nn2c(C(C)C)c(C(=O)N[C@H]3CCOc4ccccc43)cnc2c1-c1cc(Cl)cc(Cl)c1 [Example 198],–,log P [1]: 7
CC(C)Sc1nn2c(C(C)C)c(C(=O)N[C@H]3CCc4ccccc43)cnc2c1-c1cc(Cl)cc(Cl)c1 [Example 199],–,log P [1]: 7.34
CCSc1nn2c(C(C)C)c(C(=O)N[C@H]3CCOc4ccccc43)cnc2c1-c1cc(Cl)cc(Cl)c1 [Example 200],–,log P [1]: 6.71
CCSc1nn2c(C(C)C)c(C(=O)N[C@H]3CCc4ccccc43)cnc2c1-c1cc(Cl)cc(Cl)c1 [Example 201],–,log P [1]: 6.93
CC(C)c1c(C(=O)N[C@H]2CCc3ccccc32)cnc2c(-c3cc(Cl)cc(Cl)c3)c(S(=O)(=O)C(C)C)nn12 [Example 214],–,log P [1]: 4.85
Cc1nn2c(C(C)C)c(C(=O)N[C@H]3CCOc4ccccc43)cnc2c1-c1ccc2c(c1)CCC2=O [Example 250],–,log P [1]: 3.75

Structure (SMILES),logP (Method L0) [a] [1],also measured
Cc1nc2c(-c3cc(Cl)cc(Cl)c3)c(C)nn2c(C)c1C(=O)N[C@H]1CCOc2ccccc21 [Example 268],–,log P [1]: 4.76
Cc1nn2c(C(F)(F)F)c(C(=O)N[C@H]3CCc4ccccc43)cnc2c1-c1c(F)cccc1F [Example 410],–,"log P [1, 2]: 4.16"
CC(C)c1c(C(=O)N[C@H]2CCc3ccccc32)cnc2c(-c3cccc(Cl)c3)c(C3CC3)nn12 [Example 411],–,"log P [1, 2]: 5.87"
Cc1nn2c(C(F)(F)F)c(C(=O)N[C@H]3CCc4ccccc43)cnc2c1-c1ccccc1Cl [Example 412],–,"log P [1, 2]: 4.43"
CC(C)c1c(C(=O)N[C@H]2CCc3ccccc32)cnc2c(-c3ccccc3Cl)c(C3CC3)nn12 [Example 414],–,"log P [1, 2]: 5.87"
CC(C)c1c(C(=O)N[C@H]2CCc3ccccc32)cnc2c(-c3cccc(C(F)(F)F)c3)c(C3CC3)nn12 [Example 415],–,"log P [1, 2]: 5.94"
CC(C)c1c(C(=O)N[C@H]2CCc3ccccc32)cnc2c(-c3cccc(F)c3)c(C3CC3)nn12 [Example 416],–,"log P [1, 2]: 5.41"
Cc1nn2c(C(C)C)c(C(=O)N[C@H]3CCc4ccccc43)cnc2c1-n1cccn1 [Example 426],–,"log P [1, 2]: 3.29"
COc1c(C(=O)N[C@H]2CCc3ccccc32)cnc2c(-c3c(F)cccc3Cl)c(C)nn12 [Example 513],–,"log P [1, 2]: 2.96"
Cc1nn2c(N3CCOCC3)c(C(=O)N[C@H]3CCOc4ccccc43)cnc2c1-c1ccc(F)c(N(C)C)c1F [Example 543],–,pE50 (C. elegans Slo-1a): 8.6
Cc1nn2c(N3CCOCC3)c(C(=O)N[C@H]3CCOc4ccccc43)cnc2c1-c1c(Cl)cccc1Cl [Example 544],–,pE50 (C. elegans Slo-1a): 8.3
Cc1nn2c(N3CCOCC3)c(C(=O)N[C@H]3CCOc4ccccc43)cnc2c1-c1c(F)ccc(Cl)c1F [Example 545],–,pE50 (C. elegans Slo-1a): 8.8
Cc1nn2c(N(C)C)c(C(=O)N[C@H]3CCOc4ccccc43)cnc2c1-c1cc(C(F)(F)F)ccc1F [Example 547],–,pE50 (C. elegans Slo-1a): 8.9
Cc1nn2c(N(C)C)c(C(=O)N[C@H]3CCOc4ccccc43)cnc2c1-c1cccc(F)c1F [Example 549],–,pE50 (C. elegans Slo-1a): 8.4
Cc1nn2c(N(C)C)c(C(=O)N[C@H]3CCOc4ccccc43)cnc2c1-c1ccc(F)c(N(C)C)c1F [Example 550],–,pE50 (C. elegans Slo-1a): 8.7
COc1c(F)ccc(-c2c(C)nn3c(N(C)C)c(C(=O)N[C@H]4CCOc5ccccc54)cnc23)c1F [Example 551],–,pE50 (C. elegans Slo-1a): 8.9
Cc1nn2c(N(C)C)c(C(=O)N[C@H]3CCOc4ccccc43)cnc2c1-c1cccc(Cl)c1F [Example 552],–,pE50 (C. elegans Slo-1a): 8.7
Cc1ccccc1-c1c(C)nn2c(N(C)C)c(C(=O)N[C@H]3CCOc4ccccc43)cnc12 [Example 553],–,pE50 (C. elegans Slo-1a): 8.2
Cc1nn2c(N(C)C)c(C(=O)N[C@H]3CCOc4ccccc43)cnc2c1-c1c(F)ccc(F)c1F [Example 554],–,pE50 (C. elegans Slo-1a): 8.7
Cc1nn2c(N(C)C3CC3)c(C(=O)N[C@H]3CCOc4ccccc43)cnc2c1-c1cc(Cl)cc(Cl)c1 [Example 555],–,pE50 (C. elegans Slo-1a): 7.6
Cc1nn2c(N(C)CCN3CCCC3=O)c(C(=O)N[C@H]3CCOc4ccccc43)cnc2c1-c1cc(Cl)cc(Cl)c1 [Example 560],–,pE50 (C. elegans Slo-1a): 8.2
COCCOCCOCCN(C)c1c(C(=O)N[C@H]2CCOc3ccccc32)cnc2c(-c3cc(Cl)cc(Cl)c3)c(C)nn12 [Example 561],–,pE50 (C. elegans Slo-1a): 8.2
